Among the data in US8273773B2 (priority 2008, dated 2012) are IC50 values, retold here.
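Further: recombinant His-tagged enzyme from E. coli, radiolabeled nucleotide incorporation into acid-insoluble RNA read by scintillation after filtration, no-enzyme background subtracted, activity relative to positive control.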

One experiment deals with T1, HCV polymerase (NS5B570n-Con1) (Hepatitis C virus genotype 1b, UniProt Q9WMX2).
T1 construct: contains a 21 amino acid deletion at the C-terminus relative to the full-length HCV polymerase; 6-histidine (N); made in house; host or cells: E. coli strain BL21(DE) pLysS (pET17b)
Description: biochemical. Also noted: species or system HCV Con1 strain. The conditions noted are these: IC50 HCV NS5B RNA Polymerase Assay (values with asterisk), values with asterisk: cIRES RNA template, 3 nM NS5B570n-Con1.
One may read the IC50 as the midpoint of a concentration-inhibition curve. With `COC(=O)c1cc(NS(C)(=O)=O)ccc1/C=C/c1cc(-c2cc(F)c[nH]c2=O)cc(C(C)(C)C)c1OC` [I-186], the IC50 came to 4 nM.

Consider `COC(=O)c1cc(NS(C)(=O)=O)ccc1CCc1cc(-c2cc(F)c[nH]c2=O)cc(C(C)(C)C)c1OC` [I-189], for which the IC50 worked out at 1 nM. With `COc1c(CCc2ccc(NS(C)(=O)=O)cc2C(=O)O)cc(-c2cc(F)c[nH]c2=O)cc1C(C)(C)C` [I-190, 2-{2-[3-tert-Butyl-5-(5-fluoro-2-oxo-1,2-dihydro-pyridin-3-yl)-2-methoxy-phenyl]-ethyl}-5-methanesulfonylamino-benzoic acid], the 50% inhibitory concentration (IC50) was 1 nM. Compound `COC(=O)c1cc(NS(C)(=O)=O)ccc1/C=C/c1cc(-c2ccc(C)[nH]c2=O)cc(C(C)(C)C)c1OC` [I-201, 2-{(E)-2-[3-tert-Butyl-2-methoxy-5-(6-methyl-2-oxo-1,2-dihydro-pyridin-3-yl)-phenyl]-vinyl}-5-methanesulfonylamino-benzoic acid methyl ester] gave a half-inhibitory concentration (IC50) of 1 nM.

In turn, `COc1c(/C=C/c2ccc(NS(C)(=O)=O)cc2C(C)(C)O)cc(-c2ccc[nH]c2=O)cc1C(C)(C)C` [I-204, N-[4-{(E)-2-[3-tert-Butyl-2-methoxy-5-(2-oxo-1,2-dihydro-pyridin-3-yl)-phenyl]-vinyl}-3-(1-hydroxy-1-methyl-ethyl)-phenyl]-methanesulfonamide] yielded a 50% inhibitory concentration (IC50) of 1 nM. With `COCc1cc(NS(C)(=O)=O)ccc1/C=C/c1cc(-c2ccc[nH]c2=O)cc(C(C)(C)C)c1OC` [I-206, N-(4-{E-2-[3-tert-Butyl-2-methoxy-5-(2-oxo-1,2-dihydro-pyridin-3-yl)-phenyl]-vinyl}-3-methoxymethyl-phenyl)-methanesulfonamide], the IC50 is 2 nM. Same read-out and setting: then `COc1c(/C=C/c2ccc(NS(C)(=O)=O)cc2C(=O)N(C)CCN(C)C)cc(-c2cc(F)c[nH]c2=O)cc1C(C)(C)C` [I-207], with 4 nM; and `COCc1cc(NS(C)(=O)=O)ccc1/C=C/c1cc(-c2ccc(C)[nH]c2=O)cc(C(C)(C)C)c1OC` [I-208, N-(4-{(E)-2-[3-tert-Butyl-2-methoxy-5-(6-methyl-2-oxo-1,2-dihydro-pyridin-3-yl)-phenyl]-vinyl}-3-methoxymethyl-phenyl)-methanesulfonamide], with 1 nM. Consider `COCc1cc(NS(C)(=O)=O)ccc1/C=C/c1cc(-c2ccc(OC)[nH]c2=O)cc(C(C)(C)C)c1OC` [I-209, N-(4-{(E)-2-[3-tert-Butyl-2-methoxy-5-(6-methoxy-2-oxo-1,2-dihydro-pyridin-3-yl)-phenyl]-vinyl}-3-methoxymethyl-phenyl)-methanesulfonamide], for which the IC50 amounted to 1 nM. For the compound `COc1ccc(-c2cc(/C=C/c3ccc(NS(C)(=O)=O)cc3CO)c(OC)c(C(C)(C)C)c2)c(=O)[nH]1` [I-210, N-(4-{(E)-2-[3-tert-Butyl-2-methoxy-5-(6-methoxy-2-oxo-1,2-dihydro-pyridin-3-yl)-phenyl]-vinyl}-3-hydroxymethyl-phenyl)-methanesulfonamide], the 50% inhibitory concentration (IC50) worked out at 1 nM. Consider `COc1ccc(-c2cc(/C=C/c3ccc(NS(C)(=O)=O)cc3C(=O)O)c(OC)c(C(C)(C)C)c2)c(=O)[nH]1` [I-211, 2-{(E)-2-[3-tert-Butyl-2-methoxy-5-(6-methoxy-2-oxo-1,2-dihydro-pyridin-3-yl)-phenyl]-vinyl}-5-methanesulfonylamino-benzoic acid], for which inhibition was half-maximal at 4 nM (IC50).

`COc1c(/C=C/c2ncc(NS(C)(=O)=O)cc2C)cc(-c2ccc[nH]c2=O)cc1C(C)(C)C` [I-213, N-(6-{(E)-2-[3-tert-Butyl-2-methoxy-5-(2-oxo-1,2-dihydro-pyridin-3-yl)-phenyl]-vinyl}-5-methyl-pyridin-3-yl)-methanesulfonamide] yielded a concentration for half-maximal inhibition (IC50) of 3 nM. The compound `CC(C)(C)c1cc(CCc2ccc(NS(C)(=O)=O)cn2)c(O)c(-c2ccc[nH]c2=O)c1` [I-214, N-(6-{2-[5-tert-butyl-2-hydroxy-3-(2-oxo-1,2-dihydro-pyridin-3-yl)-phenyl]-ethyl}-pyridin-3-yl)-methanesulfonamide] gave an IC50 of 2 nM.

`COc1c(/C=C/c2ccc(NS(C)(=O)=O)cc2COCCC(C)(C)O)cc(-c2cc(F)c[nH]c2=O)cc1C(C)(C)C` [I-219, N-[4-{(E)-2-[3-tert-Butyl-5-(5-fluoro-2-oxo-1,2-dihydro-pyridin-3-yl)-2-methoxy-phenyl]-vinyl}-3-(3-hydroxy-3-methyl-butoxymethyl)-phenyl]-methanesulfonamide] registered an IC50 of 4 nM. On to `COc1c(/C=C/c2ccc(NS(C)(=O)=O)cc2CN2CCOC2=O)cc(-c2cc(F)c[nH]c2=O)cc1C(C)(C)C` [I-220, N-[4-{(E)-2-[3-tert-Butyl-5-(5-fluoro-2-oxo-1,2-dihydro-pyridin-3-yl)-2-methoxy-phenyl]-vinyl}-3-(2-oxo-oxazolidin-3-ylmethyl)-phenyl]-methanesulfonamide], for which the IC50 was found to be 5 nM. Take `COc1c(/C=C/c2ccc(NS(C)(=O)=O)cc2CN(C)C)cc(-c2cc(F)c[nH]c2=O)cc1C(C)(C)C` [I-221, N-(4-{(E)-2-[3-tert-Butyl-5-(5-fluoro-2-oxo-1,2-dihydro-pyridin-3-yl)-2-methoxy-phenyl]-vinyl}-3-dimethylaminomethyl-phenyl)-methanesulfonamide]: the 50% inhibitory concentration (IC50) is 11 nM. Compound `COc1c(/C=C/c2ccc(NS(C)(=O)=O)cc2CN2CCOCC2)cc(-c2cc(F)c[nH]c2=O)cc1C(C)(C)C` [I-222, N-(4-{(E)-2-[3-tert-Butyl-5-(5-fluoro-2-oxo-1,2-dihydro-pyridin-3-yl)-2-methoxy-phenyl]-vinyl}-3-morpholin-4-ylmethyl-phenyl)-methanesulfonamide] showed a half-maximal inhibitory concentration (IC50) of 1 nM. In the case of `COc1c(/C=C/c2ccc(NS(C)(=O)=O)cc2)cc(-c2ccc(C(C)O)[nH]c2=O)cc1C(C)(C)C` (stereo not drawn) [I-223, N-[4-((E)-2-{3-tert-Butyl-5-[6-(1-hydroxy-ethyl)-2-oxo-1,2-dihydro-pyridin-3-yl]-2-methoxy-phenyl}-vinyl)-phenyl]-methanesulfonamide], the half-maximal inhibitory concentration (IC50) is 1 nM. The same measure, in the same setting: then `COc1c(/C=C/c2ccc(NS(C)(=O)=O)cc2)cc(-c2ccc(CC#N)[nH]c2=O)cc1C(C)(C)C` [I-224, N-(4-{(E)-2-[3-tert-Butyl-5-(6-cyanomethyl-2-oxo-1,2-dihydro-pyridin-3-yl)-2-methoxy-phenyl]-vinyl}-phenyl)-methanesulfonamide], with 4 nM. `COc1c(/C=C/c2ccc(NS(C)(=O)=O)cc2)cc(-c2ccc(COCCO)[nH]c2=O)cc1C(C)(C)C` [I-225, N-[4-((E)-2-{3-tert-Butyl-5-[6-(2-hydroxy-ethoxymethyl)-2-oxo-1,2-dihydro-pyridin-3-yl]-2-methoxy-phenyl}-vinyl)-phenyl]-methanesulfonamide] registered an IC50 of 6 nM. Consider `COCCc1cc(NS(C)(=O)=O)ccc1/C=C/c1cc(-c2cc(F)c[nH]c2=O)cc(C(C)(C)C)c1OC` [I-227, N-[4-{(E)-2-[3-tert-Butyl-5-(5-fluoro-2-oxo-1,2-dihydro-pyridin-3-yl)-2-methoxy-phenyl]-vinyl}-3-(2-methoxy-ethyl)-phenyl]-methanesulfonamide], for which the midpoint of inhibition, the IC50, lay at 1 nM.

The same experiment, now with this note: IC50 HCV NS5B RNA Polymerase Assay, values without asterisk; 20 nM NS5B570n-Con1 enzyme, 20 nM cIRES RNA template.
On to `COc1c(/C=C/c2ccc(N)nn2)cc(-c2ccc[nH]c2=O)cc1C(C)(C)C` [I-181], for which the IC50 came out at 8 nM.

Consider `COc1c(C(=O)Nc2cccc(O)c2C)cc(-c2ccc[nH]c2=O)cc1C(C)(C)C` [I-185], for which half-maximal inhibition (IC50) was put at 854 nM. Regarding `COc1c(CC(CN(C)C)c2ccc(NS(C)(=O)=O)cc2)cc(-c2ccc[nH]c2=O)cc1C(C)(C)C` (stereo not drawn) [I-192, N-(4-{2-[3-tert-Butyl-2-methoxy-5-(2-oxo-1,2-dihydro-pyridin-3-yl)-phenyl]-1-dimethylaminomethyl-ethyl}-phenyl)-methanesulfonamide], inhibition was half-maximal at 28 nM (IC50). The compound `COc1c(CC(C)(CO)c2ccc(NS(C)(=O)=O)cc2)cc(-c2ccc[nH]c2=O)cc1C(C)(C)C` (stereo not drawn) [I-198, N-(4-{2-[3-tert-Butyl-2-methoxy-5-(2-oxo-1,2-dihydro-pyridin-3-yl)-phenyl]-1-hydroxymethyl-1-methyl-ethyl}-phenyl)-methanesulfonamide] displayed an IC50 of 19 nM.

With `CC(C)(C)c1cc(CCc2ccc(NS(C)(=O)=O)nc2)c(C#N)c(-c2ccc[nH]c2=O)c1` [I-212, N-(5-{2-[5-tert-Butyl-2-cyano-3-(2-oxo-1,2-dihydro-pyridin-3-yl)-phenyl]-ethyl}-pyridin-2-yl)-methanesulfonamide], inhibition was half-maximal at 9 nM (IC50).

`CC(C)(C)c1cc(CCc2ccc(NS(C)(=O)=O)cn2)c(O)c(-c2ccc[nH]c2=O)c1` [I-214, N-(6-{2-[5-tert-butyl-2-hydroxy-3-(2-oxo-1,2-dihydro-pyridin-3-yl)-phenyl]-ethyl}-pyridin-3-yl)-methanesulfonamide]: the midpoint of inhibition, the IC50, lay at 5 nM. Consider `CC(C)(C)c1cc(CCc2ccc(NS(C)(=O)=O)cc2C#N)c(O)c(-c2ccc[nH]c2=O)c1` [I-216, N-(4-{2-[5-tert-Butyl-2-hydroxy-3-(2-oxo-1,2-dihydro-pyridin-3-yl)-phenyl]ethyl}-3-cyano-phenyl)-methanesulfonamide], for which the concentration for half-maximal inhibition (IC50) amounted to 5 nM. `CC(C)(C)c1cc(C#Cc2ccc(NS(C)(=O)=O)cc2F)c(O)c(-c2ccc[nH]c2=O)c1` [I-217, N-{4-[5-tert-Butyl-2-hydroxy-3-(2-oxo-1,2-dihydro-pyridin-3-yl)-phenylethynyl]-3-fluoro-phenyl}-methanesulfonamide] came in with an IC50 of 69 nM. `COc1c(C(C)(C)C)cc(-c2ccc[nH]c2=O)c(O)c1CCc1ccc(NS(C)(=O)=O)cc1` [I-218, N-(4-{2-[3-tert-Butyl-6-hydroxy-2-methoxy-5-(2-oxo-1,2-dihydro-pyridin-3-yl)-phenyl]-ethyl}-phenyl)-methanesulfonamide] yielded an IC50 of 8 nM.

Staying with this experiment, now noted: read-out: IC50 HCV NS5B RNA Polymerase Assay; values without asterisk; 20 nM NS5B570n-Con1 enzyme, 20 nM cIRES RNA template.
For `COc1c(/C=C/c2ccc(NS(C)(=O)=O)nn2)cc(-c2ccc[nH]c2=O)cc1C(C)(C)C` [I-182], the concentration for half-maximal inhibition (IC50) was determined as 9 nM.

Take `COc1c(/C=C/c2ccc(N)nn2)cc(-c2cc(F)c[nH]c2=O)cc1C(C)(C)C` [I-183]: the half-maximal inhibitory concentration (IC50) worked out at 7 nM. Still for that read-out and setting: then `COc1c(/C=C/c2ccc(NS(C)(=O)=O)nn2)cc(-c2cc(F)c[nH]c2=O)cc1C(C)(C)C` [I-184], with 4 nM.
